Assay results as given in ChEMBL document CHEMBL6120940, “Discovery of N-Aryl-N'-[4-(aryloxy)cyclohexyl]squaramide-Based Inhibitors of LXR/SREBP-1c Signaling Pathway Ameliorating Steatotic Liver Disease: Navigating the Role of SIRT6 Activation” (J Med Chem, 2024).
Calls of active or inactive are those of the source. No cut-off for these calls is given here.

How the values were obtained:
[1] = Downregulation of SREBP-1c mRNA expression in human HepG2 cells at 10 uM pretreated with compound for 30 mins followed by T0901317 addition and measured after 12 hrs by RT-qPCR analysis relative to control; format: functional; conditions: time 12.5 hrs
[2] = target: T1, Sterol regulatory element-binding protein 1 (Homo sapiens) (UniProt P36956); assay: Inhibition of SREBP-1c transcriptional activity in human HepG2 cells expressing LXRalpha/RXRalpha assessed as reduction in SRE-luciferase level at 10 uM pretreated with compound for 30 mins followed by T0901317 addition and measured after 12 hrs by Dual-Glo luciferase assay relative to control; format: cell-based; conditions: time 12.5 hrs
T1 sequence (whole entry): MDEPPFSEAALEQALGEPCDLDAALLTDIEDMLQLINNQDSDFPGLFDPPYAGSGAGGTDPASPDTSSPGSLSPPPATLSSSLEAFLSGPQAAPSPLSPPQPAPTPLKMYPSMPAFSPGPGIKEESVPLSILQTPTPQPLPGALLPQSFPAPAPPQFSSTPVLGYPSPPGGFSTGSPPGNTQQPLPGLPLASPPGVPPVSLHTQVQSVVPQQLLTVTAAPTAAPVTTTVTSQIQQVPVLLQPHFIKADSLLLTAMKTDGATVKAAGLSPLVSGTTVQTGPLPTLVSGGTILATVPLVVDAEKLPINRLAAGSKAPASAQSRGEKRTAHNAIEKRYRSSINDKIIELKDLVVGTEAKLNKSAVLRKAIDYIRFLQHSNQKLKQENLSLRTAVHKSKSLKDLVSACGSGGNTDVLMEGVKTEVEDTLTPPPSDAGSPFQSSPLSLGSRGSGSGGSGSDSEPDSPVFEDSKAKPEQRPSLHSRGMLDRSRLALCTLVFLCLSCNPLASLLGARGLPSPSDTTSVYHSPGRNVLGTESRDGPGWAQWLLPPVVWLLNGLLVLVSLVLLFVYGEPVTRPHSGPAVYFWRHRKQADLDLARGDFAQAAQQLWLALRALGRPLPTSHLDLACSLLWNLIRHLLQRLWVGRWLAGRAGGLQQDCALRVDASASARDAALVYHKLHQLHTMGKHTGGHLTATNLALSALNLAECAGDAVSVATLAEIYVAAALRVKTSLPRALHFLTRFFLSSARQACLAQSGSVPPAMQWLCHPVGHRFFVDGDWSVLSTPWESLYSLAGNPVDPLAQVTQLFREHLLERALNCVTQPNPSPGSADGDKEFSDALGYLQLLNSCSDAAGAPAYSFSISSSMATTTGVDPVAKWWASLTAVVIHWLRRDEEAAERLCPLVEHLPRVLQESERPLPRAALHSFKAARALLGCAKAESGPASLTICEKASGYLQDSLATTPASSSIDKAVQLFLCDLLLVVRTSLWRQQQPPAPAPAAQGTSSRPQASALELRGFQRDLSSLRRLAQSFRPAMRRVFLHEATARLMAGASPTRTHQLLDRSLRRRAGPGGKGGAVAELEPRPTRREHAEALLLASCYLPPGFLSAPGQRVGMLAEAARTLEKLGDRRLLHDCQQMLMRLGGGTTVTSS

[3] = Stability in human plasma measured after 120 mins by LC-MS/MS analysis; format: ADME, cell-free; conditions: read-out: Stability
[4] = target: CYP2C19 (Homo sapiens, UniProt P33261); assay: Inhibition of CYP2C19 in human liver microsomes at 10 uM using S-mephenytoin as substrate preincubated for 5 mins followed by NADPH generating system addition and measured after 15 mins relative to control; format: ADME, Microsome; conditions: probe S-mephenytoin, time 20 min
[5] = target: CYP2D6 (Homo sapiens, UniProt P10635); assay: Inhibition of CYP2D6 in human liver microsomes at 10 uM using dextromethorphan as substrate preincubated for 5 mins followed by NADPH generating system addition and measured after 15 mins relative to control; format: ADME, Microsome; conditions: probe dextromethorphan, time 20 min
[6] = target: CYP3A4 (Homo sapiens, UniProt P08684); assay: Inhibition of CYP3A4 in human liver microsomes at 10 uM using midazolam as substrate preincubated for 5 mins followed by NADPH generating system addition and measured after 15 mins relative to control; format: ADME, Microsome; conditions: probe midazolam, time 20 min
[7] = Tmax in 16 hrs fasted ICR mouse at 20 mg/kg, po measured upto 8 hrs by LC-MS/MS analysis; format: ADME, organism-based; conditions: in vivo
[8] = tested on: HepG2; assay: Downregulation of ACACA gene expression in human HepG2 cells in presence of T0901317 by RNA sequencing analysis; format: functional, cell-based
[9] = tested on: HepG2; assay: Downregulation of FASN gene expression in human HepG2 cells in presence of T0901317 by RNA sequencing analysis; format: functional, cell-based
[10] = tested on: HepG2; assay: Downregulation of ACACA expression level in human HepG2 cells at 5 to 10 uM pretreated with compound for 30 mins followed by T0901317 addition and measured after 12 hrs by RT-qPCR analysis; format: functional, cell-based; conditions: dose 5-10 µM, time 12.5 hrs
[11] = tested on: HepG2; assay: Downregulation of FASN mRNA level in human HepG2 cells at 10 uM pretreated with compound for 30 mins followed by T0901317 addition and measured after 12 hrs by RT-qPCR analysis; format: functional, cell-based; conditions: time 12.5 hrs
[12] = tested on: Hepatocyte; assay: Inhibition of Fasn level in mouse hepatocyte at 10 uM preincubated with compound for 30 mins followed by T0901317 addition and measured after 12 hrs; format: functional, cell-based; conditions: time 12.5 hrs
[13] = tested on: Hepatocyte; assay: Effect on Acox-1 gene expression in mouse hepatocyte; format: functional, cell-based
[14] = tested on: HepG2; assay: Downregulation of acetylated histone H3K9 level in human HepG2 cells preincubated for 30 mins followed by T0901317 addition and measured after 12 hrs; format: functional, cell-based; conditions: dose 5-10 µM, time 12.5 hrs
[15] = tested on: HepG2; assay: Activation of AMPK in human HepG2 cells assessed as increase in ratio of ACACA phosphorylation to total ACACA at 5 uM pretreated with compound for 30 mins followed by T0901317 addition and measured after 12 hrs by immunoblot analysis; format: cell-based; conditions: filed as activator, time 12.5 hrs
[16] = tested on: Mus musculus; assay: Anti-lipogenic activity against high fat died induced male C57BL/6J mouse obesity model assessed as reduction ALT level in serum at 15 mg/kg, po administered three times per week and measured for 5 weeks; format: functional, organism-based
[17] = tested on: Mus musculus; assay: Anti-lipogenic activity against high fat died induced male C57BL/6J mouse obesity model assessed as reduction AST level in serum at 15 mg/kg, po administered three times per week and measured for 5 weeks; format: functional, organism-based
[18] = tested on: Mus musculus; assay: Anti-lipogenic activity against high fat died induced male C57BL/6J mouse obesity model assessed as decrease in hepatic fat content at 15 mg/kg, po administered three times per week and measured for 5 weeks by Oil red O staining based analysis; format: functional, organism-based
[19] = tested on: Mus musculus; assay: Anti-lipogenic activity against high fat died induced male C57BL/6J mouse obesity model assessed as downregulation of Acaca-gene level at 15 mg/kg, po administered three times per week and measured after 5 weeks by RT-qPCT analysis; format: functional, organism-based
[20] = tested on: Mus musculus; assay: Anti-lipogenic activity against high fat died induced male C57BL/6J mouse obesity model assessed as downregulation of Ccl5 mRNA level at 15 mg/kg, po administered three times per week and measured after 5 weeks by RT-qPCT analysis; format: functional, organism-based
[21] = tested on: Mus musculus; assay: Anti-lipogenic activity against high fat died induced male C57BL/6J mouse obesity model assessed as downregulation of Cxcl1 mRNA level at 15 mg/kg, po administered three times per week and measured after 5 weeks by RT-qPCT analysis; format: functional, organism-based

CYP2D6, sequence (P10635 whole entry): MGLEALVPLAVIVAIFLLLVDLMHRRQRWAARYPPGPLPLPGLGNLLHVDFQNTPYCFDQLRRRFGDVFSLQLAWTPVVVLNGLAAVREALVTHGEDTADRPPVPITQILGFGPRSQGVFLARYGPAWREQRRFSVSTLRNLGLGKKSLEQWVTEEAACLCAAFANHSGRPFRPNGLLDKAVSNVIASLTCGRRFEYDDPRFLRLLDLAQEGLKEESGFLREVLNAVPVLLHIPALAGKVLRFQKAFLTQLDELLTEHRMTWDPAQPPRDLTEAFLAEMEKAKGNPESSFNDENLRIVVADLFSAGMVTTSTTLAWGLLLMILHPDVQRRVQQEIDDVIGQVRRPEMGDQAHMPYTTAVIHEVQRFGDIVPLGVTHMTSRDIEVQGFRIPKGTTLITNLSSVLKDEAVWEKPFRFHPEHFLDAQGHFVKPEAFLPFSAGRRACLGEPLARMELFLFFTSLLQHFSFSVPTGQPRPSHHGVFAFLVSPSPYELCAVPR
CYP3A4, sequence (P08684 whole entry): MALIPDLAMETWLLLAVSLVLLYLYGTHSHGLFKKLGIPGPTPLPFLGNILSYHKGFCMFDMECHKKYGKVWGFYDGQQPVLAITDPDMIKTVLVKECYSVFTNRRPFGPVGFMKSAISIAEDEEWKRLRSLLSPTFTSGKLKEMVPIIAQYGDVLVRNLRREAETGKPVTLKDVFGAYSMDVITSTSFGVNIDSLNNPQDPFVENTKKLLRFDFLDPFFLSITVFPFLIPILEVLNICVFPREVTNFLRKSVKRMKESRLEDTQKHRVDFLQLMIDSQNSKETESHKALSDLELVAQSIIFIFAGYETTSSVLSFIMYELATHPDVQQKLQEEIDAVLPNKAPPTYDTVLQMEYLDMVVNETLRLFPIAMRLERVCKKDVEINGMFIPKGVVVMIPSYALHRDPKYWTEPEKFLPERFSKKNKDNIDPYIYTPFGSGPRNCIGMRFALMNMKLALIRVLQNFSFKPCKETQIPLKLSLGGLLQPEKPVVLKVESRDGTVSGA
CYP2C19, sequence (P33261 whole entry): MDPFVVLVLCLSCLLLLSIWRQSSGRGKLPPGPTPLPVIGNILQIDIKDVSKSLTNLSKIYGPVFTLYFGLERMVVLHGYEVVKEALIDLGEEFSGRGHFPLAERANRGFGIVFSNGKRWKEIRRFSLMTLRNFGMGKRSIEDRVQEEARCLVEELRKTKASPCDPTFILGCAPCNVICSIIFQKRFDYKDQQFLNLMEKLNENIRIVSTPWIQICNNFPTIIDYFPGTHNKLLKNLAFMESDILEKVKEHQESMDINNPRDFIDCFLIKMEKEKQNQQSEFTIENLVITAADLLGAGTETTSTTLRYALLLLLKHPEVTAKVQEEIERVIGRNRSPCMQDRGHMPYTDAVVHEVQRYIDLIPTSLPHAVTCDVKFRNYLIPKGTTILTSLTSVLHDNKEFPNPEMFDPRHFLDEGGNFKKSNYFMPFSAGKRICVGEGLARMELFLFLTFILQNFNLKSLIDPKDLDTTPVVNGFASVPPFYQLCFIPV

SMILES: COc1ccccc1Nc1c(N[C@H]2CC[C@H](Oc3ccc([N+](=O)[O-])cc3)CC2)c(=O)c1=O
- Activity [1]: 16.2%
- inhibition [2]: 27.7%
- remaining at 2 h [3]: 94.6%
- inhibition at 0.25 h, 10 µM [4]: 41.1%
- inhibition at 0.25 h, 10 µM [5]: > 100%
- inhibition at 0.25 h, 10 µM [6]: 91.6%
- Tmax [7]: 18 min
- Activity [8]: Active
- Activity [9]: Active
- Activity [10]: Active
- Activity [11]: Active
- inhibition [12]: Active
- Activity [13]: inactive
- Activity [14]: Dose-dependent-effect
- Activity [15]: Active
- Activity [16]: Active
- Activity [17]: Active
- Activity [18]: Active
- Activity [19]: Active
- Activity [20]: Active
- Activity [21]: Active
